# Several values for one entry are separate records, joined by “and”; a condition that tells them apart may be missing. Equal values may be shown once. Entries after “also recorded” stand apart in the source; their conditions may differ. Read-outs that look alike come from different tables or passages of the source.
# Legend:
# [1] = Lipophilicity (logP), octanol-water shake-flask method; format: physicochemical; conditions: 1-octanol/water, room temperature, triplicate, read-out: experimental logP (octanol-water)
# Experimental: The lipophilicity of GT-14 as indicated by the logP value (octanol–water partition coefficient) was determined by the traditional shake-flask method. Briefly, equal volumes (1 mL) of 1-octanol and water were added to an amber glass bottle and allowed to equilibrate on a shaker for 24 h. Following equilibration, approx. 1 mg of GT-14 (dissolved in Acetonitrile) was added to the two-phase system and allowed to shake continuously at room temperature for 72 h. The two phases were separated using a separating funnel and then centrifuged at 15,000 rpm for 10 min. The concentration of GT-14 in the octanol and water phases was determined by UPLC assay. The experiment was conducted in triplicate.
# The logP was calculated by the equation: logP=logOctanolConc./AqueousConc.
# [2] = pH-dependent stability in USP buffers; format: physicochemical; conditions: 25°C
# Experimental: The pH-dependent stability of GT-14 was assessed in aqueous media of pH ranging from 1 to 10 at room temperature. Standard USP buffers ([11]) were prepared and used for this experiment. Details of buffer solutions are provided in Table I. For the pH solubility profile, GT-14 solid was added in excess amounts in various buffer solutions.
# To determine the stability of GT-14 in different buffers, GT-14 stock solution (prepared in ACN at a concentration of 75 μg/mL) was added to different buffers to achieve a target concentration of 5 μg/mL. Each buffer solution was prepared in triplicate. All solutions were put on the shaker bath maintained at 25°C. Aliquots were withdrawn at predetermined time points (0, 24, 72, 96, and 120 hrs), centrifuged at 15,000 rpm for 10 min, diluted with Water: ACN (50:50, v/v), and analyzed by the UPLC assay.
# [3] = Cosolvent formulation: solubility, saline dilution and storage stability; format: physicochemical; conditions: for solubility: organic solvent or mixture
# Experimental: Co-solvent systems with various compositions and ratios of PEG 400, PEG 300, and propylene glycol were prepared to solubilize 5–10 mg/mL of GT-14. Each system was diluted with normal saline at different ratios of 1:1, 1:3, 1:7, and 1:15 (v/v) and observed for signs of precipitation for 4 h. The cosolvent system with maximum solubility and aqueous tolerance was tested for stability at different temperatures (−20°C, 4°C, and room temperature) in amber glass vials for up to a month. Samples were aliquoted at different time points and analyzed with UPLC.
# liver microsomes = assay: Phase II glucuronidation reaction with liver microsomes; format: in vitro ADME; conditions: UDPGA, 2 h
# Experimental: The in vitro phase II glucuronidation reaction was carried out using a published protocol that involves the use of uridine diphosphate glucuronic acid (UDPGA) as cofactor, saccharolactone as beta-glucuronidase inhibitor to drive the forward reaction to release the metabolite, potassium phosphate buffer (KPI) to mimic physiological conditions, and alamethicin as a surfactant for the response. The components were pipetted into microcentrifuge tubes in the following order: GT-14 testing solution in KPI (pH 7.4), solution B (25 mM saccharolactone and 5 mM magnesium chloride), solution A (25 mM uridine diphosphate glucuronic acid and potassium chloride), microsome. Samples (100 μL) were taken at 2 h. The reaction was terminated with 50 μL of solution containing 0.6% formic acid in acetonitrile + internal standard (rutin) at each time point and vortexed for 1 min. The samples were then centrifuged at 14,000 rpm for 15 min. The supernatant (100 μL) was then collected and loaded into the UPLC for analysis.
# [4] = Stability of GT-14 in rat urine; format: in vitro ADME; conditions: for Stability at -20 °C (48 hrs) in rat urine: n=5, in %
# Experimental: Blank rat urine was spiked with GT-14 at conc. of 25, 50, 500 and 1000 ng/mL. The samples were kept at -20°C for 48 hours (n=5, Mean ± SD)
# [5] = design: method as in PMID 38744031; conditions: rat, cited from earlier work
# PC3 cells = conditions: cited from earlier work
# DU145 = test system: DU145; design: method as in PMID 32575572; conditions: cited from earlier work
# LNCaP cells = test system: LNCaP cells; design: method as in PMID 38254786; conditions: simultaneous treatment; cited from earlier work
smiles,measurement,setting,value
"C/C(=N\c1ccc(O)cc1)c1cc2ccccc2n1C [GT-14, (E)-4-((1-(1-methyl-1H-indol-2-yl)ethylidene)amino)phenol]",logP at 72 h,[1],2.38
same,pH stability (in words),"[2]; acidic to neutral pH 1.2–7.4, 120 hours",relatively stable
same,pH stability (in words),"[2]; alkaline pH 9–10, 120 hours",significant degradation; also recorded: degrading; also recorded: degradation is significantly pronounced
same,"pH stability, % remaining","[2]; pH 1.2–7.4, up to 120 hours",> 90% remaining
same,"Percentage Recovery, cosolvent formulation","[3]; 4°C, Day 7",101.09 ± 2.19%
same,"Percentage Recovery, cosolvent formulation","[3]; 4°C, Day 15",99.14 ± 0.32%
same,"Percentage Recovery, cosolvent formulation","[3]; 4°C, Day 30",98.83 ± 0.15%
same,solubility,"[3]; PEG300: PEG400: Propylene glycol (1:1:1), PEG300: PEG400: Propylene glycol, ratio 1:1:1, read-out: Solubility in cosolvent formulation",6000 µg/mL
same,solubility,"[3]; PEG300: PEG400: Propylene glycol (3:2:2 v/v), optimum, PEG300: PEG400: Propylene glycol, ratio 3:2:2 v/v, read-out: Solubility in cosolvent formulation (optimum)",8000 µg/mL
same,increase of solubility in optimum cosolvent formulation over water solubility,[3]; PEG 300:PEG 400:propylene glycol 3:2:2,over 70 times
same,solubility,"[3]; PEG 400: Propylene glycol: Tween 80 (2:1:0.25), PEG 400: Propylene glycol: Tween 80, ratio 2:1:0.25, read-out: Solubility in cosolvent formulation",5000 µg/mL
same,"Percentage Recovery, cosolvent formulation","[3]; Room Temperature, Day 7",93.4% and 93.37± 0.76%
same,"Percentage Recovery, cosolvent formulation","[3]; Room Temperature, Day 15",91.18 ± 0.38%
same,"Percentage Recovery, cosolvent formulation","[3]; Room Temperature, Day 30",90.88 ± 0.07%
same,precipitation on dilution of cosolvent formulation with saline,"[3]; optimum cosolvent formulation, several ratios of saline",No precipitation was observed till a 10X dilution with saline
same,appearance of cosolvent formulation after one month,[3]; room temperature,grew a darker color
same,appearance of cosolvent formulation after one month,[3]; −20°C and 4°C,"remained light yellow, without any visible particles"
same,"Percentage Recovery, cosolvent formulation","[3]; −20°C, Day 7",100.32 ± 0.08%
same,"Percentage Recovery, cosolvent formulation","[3]; −20°C, Day 15",101.22 ± 0.27%
same,"Percentage Recovery, cosolvent formulation","[3]; −20°C, Day 30",101.26 ± 0.39%
same,Phase II glucuronidation (UPLC peaks),liver microsomes,no additional peaks were observed
same,stability in rat urine (in words),[4],stable
same,Stability at -20 °C (48 hrs) in rat urine,[4]; 25 ng/ml,109.28 ± 2.57
same,Stability at -20 °C (48 hrs) in rat urine,[4]; 50 ng/ml,110.25 ± 2.36
same,Stability at -20 °C (48 hrs) in rat urine,[4]; 500 ng/ml,105.71 ± 3.76
same,Stability at -20 °C (48 hrs) in rat urine,[4]; 1000 ng/ml,101.43 ± 2.58
same,maximum plasma concentration (Cmax),"[5]; IV bolus 5 mg/kg, two-compartment model",approximately 200 ng/mL
same,terminal plasma elimination half-life,"[5]; IV bolus 5 mg/kg, 5 mg/kg",4.4678 h and 4.468 h
same,AUC0–∞,[5]; IV bolus 5 mg/kg,"23,742 min*ng/mL"
same,apparent volume of distribution (Vd),[5]; IV bolus 5 mg/kg,"25,205 ± 2,585 mL/kg"
same,distribution half-life,[5]; IV bolus 5 mg/kg,0.267 h
same,mean systemic clearance (CL),[5]; IV bolus 5 mg/kg,229.9 mL/min/kg
same,Plasma half-life in rats,[5]; IV,4 to 5 h
same,terminal plasma elimination half-life,[5]; IV,> 4 h
same,migratory capability of PC3 cells,PC3 cells,significant reduction
same,stimulatory effects of docetaxel (cell migration) in PC3 cells,PC3 cells; simultaneous treatment,blocked
same,migratory capability of DU145 cells,DU145,significant reduction
same,HDACi and antiandrogen effects on cell migration in LNCaP cells,LNCaP cells,blocked

# From article PMC13050480, “Preclinical Development of GT-14, a Novel Inhibitor of Gαi2 Protein: Comprehensive Evaluation of Physicochemical, Metabolic Characteristics and Tissue Distribution” (The AAPS journal, 2025)
